Several values for one entry are separate records, joined by “and”; a condition that tells them apart may be missing. Equal entries are not always repeated.
Molecular target: T1, THIK-1 Y273A (Homo sapiens, UniProt Q9HB14, Y273A)
T1 construct: expressed in transfected cells; host or cells: Xenopus oocytes (mRNA injection)
T1 sequence (Q9HB14 1-408 Y273A): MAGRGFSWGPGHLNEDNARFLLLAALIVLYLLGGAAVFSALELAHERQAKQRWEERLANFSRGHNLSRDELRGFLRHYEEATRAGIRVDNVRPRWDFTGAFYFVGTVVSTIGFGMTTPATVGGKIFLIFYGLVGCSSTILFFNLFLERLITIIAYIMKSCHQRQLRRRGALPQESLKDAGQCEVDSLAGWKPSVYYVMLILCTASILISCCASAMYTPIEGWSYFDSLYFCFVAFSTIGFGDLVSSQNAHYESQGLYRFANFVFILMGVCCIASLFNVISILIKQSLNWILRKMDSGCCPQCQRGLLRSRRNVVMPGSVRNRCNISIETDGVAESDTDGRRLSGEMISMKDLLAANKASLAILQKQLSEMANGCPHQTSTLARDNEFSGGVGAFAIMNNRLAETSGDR
Experiment: Inside-out excised patch recordings, oocytes, THIK-1 Y273A mutant
Type: cell-based
Parameters: Halothane inhibition: concentration or dose not given beside the values
From the text: Human K2P13.1 THIK-1 (GenBank accession number: NM_022054) and human K2P12.1 THIK-2 (NM_022055.1) were used in this study. For functional expression studies, the respective K^+ channel subtype coding sequences were subcloned into the oocyte expression vector pSGEM or the dual-purpose expression vector pFAW[41] and verified by sequencing. All mutant channels were obtained by site-directed mutagenesis and verified by sequencing. To increase surface expression and macroscopic currents, measurements of THIK-2 channels used a mutated ER retention motif, (R11A R12A R14A R15A R16A; THIK-2*)[20]. Vector DNA was linearized with NheI or MluI, and mRNA was synthesized in vitro using the SP6 or T7 AmpliCap Max High Yield Message Maker Kit (Cellscript, USA) or HiScribe T7 ARCA mRNA Kit (New England Biolabs).
Two-electrode voltage–clamp (TEVC) studies were performed in Xenopus oocytes. All animal use conformed to the Guide for the Care and Use of Laboratory Animals (NIH Publication 85–23), and all experiments using Xenopus toads were approved by the local ethics panels. Oocytes were stored at 17 °C in ND96 recording solution composed of (in mM): 96 NaCl, 2 KCl, 1.8 CaCl2, 1 MgCl2, 5 HEPES (pH 7.5 adjusted with NaOH and HCl), supplemented with Na-pyruvate (275 mg L^–1), theophylline (90 mg L^–1) and gentamicin (50 mg L^–1). Oocytes were injected with 1 ng mRNA for WT or mutant channels, and were incubated for 24–48 h at 17 °C. Two-electrode voltage clamp recordings were then performed as previously described[42],[43]. For macroscopic patch–clamp measurements, oocytes were obtained as described above incubated at 17 °C in a solution containing (mM): 54 NaCl, 30 KCl, 2.4 NaHCO3, 0.82 MgSO4 ×7 H2O, 0.41 CaCl2, 0.33 Ca(NO3)2 ×4 H2O and 7.5 TRIS (pH 7.4 adjusted with NaOH and HCl) for 1–4 days before use. Excised patch recordings in inside-out configuration conditions were performed at room temperature. […] Intracellular bath solutions and compounds were applied to the cytoplasmic side of excised patches for the various K^+ channels through a gravity flow multi-barrel pipette system. The intracellular solution had the following composition (in mM): 120 KCl, 10 HEPES, 2 EGTA and 1 pyrophosphate (pH adjusted with KOH and HCl). Currents were recorded with an EPC10 amplifier (HEKA Electronics) and sampled at 10 kHz or higher, with filtering set to 3 kHz (–3 dB) or higher, as appropriate for sampling rate. For measurements of GPCR activation, whole-cell currents were recorded for THIK-1 in transiently transfected HEK-293 cells. Cells were stimulated by a ramp protocol between −100 and +60 mV (holding potential, −80 mV). The pipette solution was composed of (in mM): 140 KCl, 2 MgCl2, 1 CaCl2, 2.5 EGTA and 10 HEPES (pH 7.3 adjusted with KOH and HCl). The extracellular bath solution had the following composition (in mM): 135 NaCl, 5 KCl, 2 MgCl2, 2 CaCl2, 10 glucose and 10 HEPES pH (pH 7.3 adjusted with NaOH and HCl). Oxotremorine M (Oxo-M) was added to extracellular bath solution to obtain the final concentration. Single-channel currents were recorded with an Axopatch 200B amplifier through a Digidata 1440A digitizer (Molecular Devices). Data were filtered at 2 kHz and recorded at a 200-kHz sampling rate with the program Clampex (Molecular Devices). Pipette solution and bath solution for cell-attached recordings contained (in mM): 140 KCl, 2 MgCl2, 1 CaCl2 and 10 HEPES (pH 7.4 adjusted with KOH and HCl). For inside-out recordings, the bath solution contained (in mM): 140 KCl, 2 MgCl2, 1 CaCl2 and 10 HEPES (pH 7.2 adjusted with KOH and HCl). All experiments were conducted at room temperature.
TPenA, linoleic acid, L-α-phosphatidylinositol 4,5-bisphosphate (brain PI(4,5)P2, PIP2) (Sigma-Aldrich and Merck) and oleoyl-CoA (LC-CoA 18:1) (Avanti Polar Lipids) were prepared as stocks (1–100 mM) in DMSO, stored at −80 °C and diluted to the final concentration in the intracellular recording solution. Oxo-M (Tocris Bioscience,) was prepared as 50 mM stock in H2O. […]

FC(F)OC(Cl)C(F)(F)F (stereo not drawn) [Isoflurane, isoflurane]
Inhibition (%) (4.9 mM Isoflurane, Y273A, individual recordings): 36.141% and 64.534% and 64.029% and 67.231% and 69.534% and 60.746% and 65.223% and 43.937% and 15.847% and 38.113% and 40.962% and 42.936% | inhibition at 242 µM (isoflurane 0.242 mM, THIK-1 Y273A): 9.07% | inhibition at 485 µM (isoflurane 0.485 mM, THIK-1 Y273A): 17.7% | inhibition at 2420 µM (isoflurane 2.42 mM, THIK-1 Y273A): 30.9% | inhibition at 4850 µM (isoflurane 4.85 mM, THIK-1 Y273A): 50.8% | inhibition at 24200 µM (isoflurane 24.2 mM, THIK-1 Y273A): 75%

FCOC(C(F)(F)F)C(F)(F)F [Sevoflurane, sevoflurane]
Inhibition (%) (0.24 mM Sevoflurane, Y273A, individual recordings): 39.37% and 26.75% and 26.20% and 15.99% and 28.93% and 17.93% and 28.11% | inhibition at 240 µM (0.24 mM Sevoflurane, Y273A, mean): 26.2% | inhibition at 23 µM (THIK-1 Y273A, 0.023 mM sevoflurane): 6.96% | inhibition at 47 µM (THIK-1 Y273A, 0.047 mM sevoflurane): 10.4% | inhibition at 468 µM (THIK-1 Y273A, 0.468 mM sevoflurane): 38.6% | inhibition at 2340 µM (THIK-1 Y273A, 2.34 mM sevoflurane): 62.5%

FC(F)(F)C(Cl)Br (stereo not drawn) [halothane]
Inhibition (%) (3.0 mM halothane, Y273A, individual recordings): 24.640% and 18.199% and 20.441% and 32.359% and 23.062% and 35.325% and 35.762% and 32.640% and 40.661% and 24.150% and 21.311% and 24.444% and 21.407% and 27.084% | inhibition at 3000 µM (3.0 mM halothane, Y273A, mean): 27.2% | Halothane inhibition (THIK-1 Y273A, 4 K+ ex., individual recordings): 48.800% and 50.390% and 50.850% and 54.290% and 50.150% and 44.140% and 43.970% and 46.310% and 43.270% and 42.110% | Halothane inhibition (THIK-1 Y273A, 4 K+ ex., mean): 47.43% | Halothane inhibition (THIK-1 Y273A, 120 K+ ex., individual recordings): 50.140% and 54.850% and 53.810% and 41.990% and 54.110% and 49.130% and 50.870% and 49.910% and 52.660% | Halothane inhibition (THIK-1 Y273A, 120 K+ ex., mean): 50.83%

CCCCC[N+](CCCCC)(CCCCC)CCCCC [TPenA, tetrapentylammonium]
Normalized currents (TPenA 0.1 µM, THIK-1 Y273A): 1.00 | Normalized currents (TPenA 1 µM, THIK-1 Y273A): 0.96 | Normalized currents (TPenA 4 µM, THIK-1 Y273A): 0.84 | Normalized currents (TPenA 15.6 µM, THIK-1 Y273A): 0.65 | Normalized currents (TPenA 62.5 µM, THIK-1 Y273A): 0.41 | Normalized currents (TPenA 250 µM, THIK-1 Y273A): 0.19 | Normalized currents (TPenA 1000 µM, THIK-1 Y273A): 0.07 | Normalized currents (TPenA 4000 µM, THIK-1 Y273A): 0.03 | τ of 1 mM TPenA block (Y273A, individual recordings): 0.054 s and 0.134 s and 0.071 s and 0.075 s and 0.076 s and 0.081 s and 0.059 s and 0.121 s and 0.057 s and 0.060 s | τ of 1 mM TPenA release (Y273A, individual recordings): 0.946 s and 0.858 s and 0.474 s and 1.777 s and 0.915 s and 1.232 s and 0.747 s and 0.935 s and 0.998 s and 1.301 s | τ of 1 mM TPenA block (Y273A, mean): 0.08 s | τ of 1 mM TPenA release (Y273A, mean): 1.02 s

Source: paper PMC12263422, “Cryo-EM structure of the human THIK-1 K2P K^+ channel reveals a lower Y gate regulated by lipids and anesthetics” (Nature Structural & Molecular Biology, 2025)
